Legend:
Test in all cases: Kinome-wide profiling
Format in all cases: biochemical
Settings in all cases: read-out: % Residual Activity (mean)
GRK5 = GRK5 (Homo sapiens (Human), UniProt P34947)
CDK2/CYCLIN E = CDK2/CYCLIN E (Homo sapiens (Human), UniProt P24941)
STK22D/TSSK1 = STK22D/TSSK1 (Homo sapiens (Human), UniProt Q9BXA7)
RSK4 = RSK4 (Homo sapiens (Human), UniProt Q9UK32)
SLK/STK2 = SLK/STK2 (Homo sapiens (Human), UniProt Q9H2G2)
ARK5/NUAK1 = ARK5/NUAK1 (Homo sapiens (Human), UniProt O60285)
GRK7 = GRK7 (Homo sapiens (Human), UniProt Q8WTQ7)
CK1d = CK1d (Homo sapiens (Human), UniProt P48730)
MEKK3 = MEKK3 (Homo sapiens (Human), UniProt Q99759)
PKCd = PKCd (Homo sapiens (Human), UniProt Q05655)
TESK1 = TESK1 (Homo sapiens (Human), UniProt Q15569)
STK32C/YANK3 = STK32C/YANK3 (Homo sapiens (Human), UniProt Q86UX6)
EPHA1 = EPHA1 (Homo sapiens (Human), UniProt P21709)
CHK2 = CHK2 (Homo sapiens (Human), UniProt O96017)
DAPK2 = DAPK2 (Homo sapiens (Human), UniProt Q9UIK4)
MKK6 = MKK6 (Homo sapiens (Human), UniProt P52564)
CHK1 = CHK1 (Homo sapiens (Human), UniProt O14757)
MLK1/MAP3K9 = MLK1/MAP3K9 (Homo sapiens (Human), UniProt P80192)
WNK3 = WNK3 (Homo sapiens (Human), UniProt Q9BYP7)
PKCmu/PRKD1 = PKCmu/PRKD1 (Homo sapiens (Human), UniProt Q15139)
LCK2/ICK = LCK2/ICK (Homo sapiens (Human), UniProt Q9UPZ9)
SNRK = SNRK (Homo sapiens (Human), UniProt Q9NRH2)
Haspin = Haspin (Homo sapiens (Human), UniProt Q8TF76)
EPHB3 = EPHB3 (Homo sapiens (Human), UniProt P54753)
FMS = FMS (Homo sapiens (Human), UniProt P07333)
STK16 = STK16 (Homo sapiens (Human), UniProt O75716)
ZIPK/DAPK3 = ZIPK/DAPK3 (Homo sapiens (Human), UniProt O43293)
MST1/STK4 = MST1/STK4 (Homo sapiens (Human), UniProt Q13043)
MARK2/PAR-1Ba = MARK2/PAR-1Ba (Homo sapiens, UniProt Q7KZI7)
PKN1/PRK1 = PKN1/PRK1 (Homo sapiens (Human), UniProt Q16512)
RSK2 = RSK2 (Homo sapiens (Human), UniProt P51812)
MEKK2 = MEKK2 (Homo sapiens (Human), UniProt Q9Y2U5)
YES/YES1 = YES/YES1 (Homo sapiens (Human), UniProt P07947)
P38b/MAPK11 = P38b/MAPK11 (Homo sapiens (Human), UniProt Q15759)
MEK2 = MEK2 (Homo sapiens (Human), UniProt P36507)
CDK4/cyclin D2 = CDK4/cyclin D2 (Homo sapiens (Human), UniProt P11802)
CDK1/cyclin A = CDK1/cyclin A (Homo sapiens (Human), UniProt P06493)
LYN B = LYN B (Homo sapiens (Human), UniProt P07948)
NEK9 = NEK9 (Homo sapiens (Human), UniProt Q8TD19)

Sequence of SNRK (Q9NRH2 whole entry): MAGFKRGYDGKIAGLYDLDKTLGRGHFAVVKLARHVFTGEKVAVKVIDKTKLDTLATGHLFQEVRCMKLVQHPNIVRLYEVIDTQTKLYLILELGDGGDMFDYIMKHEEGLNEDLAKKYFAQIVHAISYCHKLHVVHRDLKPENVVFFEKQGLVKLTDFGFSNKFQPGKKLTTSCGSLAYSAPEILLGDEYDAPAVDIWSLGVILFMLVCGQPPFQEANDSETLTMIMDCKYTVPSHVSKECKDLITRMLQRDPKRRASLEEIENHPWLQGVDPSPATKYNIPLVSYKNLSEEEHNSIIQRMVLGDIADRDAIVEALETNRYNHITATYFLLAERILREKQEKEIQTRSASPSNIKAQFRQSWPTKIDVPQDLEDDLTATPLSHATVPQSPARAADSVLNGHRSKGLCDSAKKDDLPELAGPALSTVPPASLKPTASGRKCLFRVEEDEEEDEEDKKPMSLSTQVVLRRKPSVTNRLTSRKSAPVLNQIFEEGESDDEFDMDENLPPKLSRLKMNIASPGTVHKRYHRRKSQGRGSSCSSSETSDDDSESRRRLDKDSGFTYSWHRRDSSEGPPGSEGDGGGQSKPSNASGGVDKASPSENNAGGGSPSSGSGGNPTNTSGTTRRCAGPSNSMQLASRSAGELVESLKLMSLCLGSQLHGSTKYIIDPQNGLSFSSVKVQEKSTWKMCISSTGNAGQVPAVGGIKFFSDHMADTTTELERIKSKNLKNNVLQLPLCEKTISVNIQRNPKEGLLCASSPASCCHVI
Sequence of FMS (P07333 20-972): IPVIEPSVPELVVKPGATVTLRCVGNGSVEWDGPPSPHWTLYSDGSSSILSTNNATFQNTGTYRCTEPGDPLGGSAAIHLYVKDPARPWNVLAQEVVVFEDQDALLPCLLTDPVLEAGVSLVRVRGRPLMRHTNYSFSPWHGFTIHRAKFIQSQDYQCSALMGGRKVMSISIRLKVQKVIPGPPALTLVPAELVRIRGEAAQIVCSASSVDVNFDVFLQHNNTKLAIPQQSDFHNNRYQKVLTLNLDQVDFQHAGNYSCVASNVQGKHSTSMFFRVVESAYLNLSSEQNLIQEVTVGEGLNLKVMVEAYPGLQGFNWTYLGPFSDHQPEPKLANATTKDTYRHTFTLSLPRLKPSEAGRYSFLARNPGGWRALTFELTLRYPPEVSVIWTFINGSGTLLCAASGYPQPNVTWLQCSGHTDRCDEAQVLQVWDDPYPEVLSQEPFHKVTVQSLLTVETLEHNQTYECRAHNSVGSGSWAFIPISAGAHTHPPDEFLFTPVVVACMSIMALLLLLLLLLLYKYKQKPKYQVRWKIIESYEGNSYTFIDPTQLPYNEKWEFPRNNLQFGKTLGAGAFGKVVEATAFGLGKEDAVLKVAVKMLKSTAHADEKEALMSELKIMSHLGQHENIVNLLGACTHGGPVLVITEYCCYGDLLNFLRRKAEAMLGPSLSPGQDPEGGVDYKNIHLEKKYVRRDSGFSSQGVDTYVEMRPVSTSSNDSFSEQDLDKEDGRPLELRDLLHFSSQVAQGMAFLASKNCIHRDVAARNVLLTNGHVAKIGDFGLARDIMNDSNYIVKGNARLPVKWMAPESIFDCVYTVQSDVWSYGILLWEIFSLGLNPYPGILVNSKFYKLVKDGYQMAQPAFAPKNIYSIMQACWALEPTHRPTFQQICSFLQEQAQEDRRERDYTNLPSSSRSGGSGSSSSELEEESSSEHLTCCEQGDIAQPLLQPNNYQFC
Sequence of LYN B (P07948 other isoform, or with tags, fused parts or gaps): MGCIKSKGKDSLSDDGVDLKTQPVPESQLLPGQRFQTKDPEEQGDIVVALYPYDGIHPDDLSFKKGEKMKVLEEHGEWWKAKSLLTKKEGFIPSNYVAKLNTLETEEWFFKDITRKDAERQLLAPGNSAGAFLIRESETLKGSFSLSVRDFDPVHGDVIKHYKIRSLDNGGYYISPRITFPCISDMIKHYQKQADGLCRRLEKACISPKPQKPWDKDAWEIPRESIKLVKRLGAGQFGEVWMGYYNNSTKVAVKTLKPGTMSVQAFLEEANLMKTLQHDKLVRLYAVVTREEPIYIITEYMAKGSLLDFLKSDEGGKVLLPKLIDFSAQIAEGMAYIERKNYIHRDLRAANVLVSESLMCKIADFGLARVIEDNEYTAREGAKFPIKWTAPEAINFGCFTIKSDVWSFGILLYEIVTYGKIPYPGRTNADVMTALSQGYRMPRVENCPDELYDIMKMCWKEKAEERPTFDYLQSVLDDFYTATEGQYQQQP
Sequence of EPHB3 (P54753 34-998): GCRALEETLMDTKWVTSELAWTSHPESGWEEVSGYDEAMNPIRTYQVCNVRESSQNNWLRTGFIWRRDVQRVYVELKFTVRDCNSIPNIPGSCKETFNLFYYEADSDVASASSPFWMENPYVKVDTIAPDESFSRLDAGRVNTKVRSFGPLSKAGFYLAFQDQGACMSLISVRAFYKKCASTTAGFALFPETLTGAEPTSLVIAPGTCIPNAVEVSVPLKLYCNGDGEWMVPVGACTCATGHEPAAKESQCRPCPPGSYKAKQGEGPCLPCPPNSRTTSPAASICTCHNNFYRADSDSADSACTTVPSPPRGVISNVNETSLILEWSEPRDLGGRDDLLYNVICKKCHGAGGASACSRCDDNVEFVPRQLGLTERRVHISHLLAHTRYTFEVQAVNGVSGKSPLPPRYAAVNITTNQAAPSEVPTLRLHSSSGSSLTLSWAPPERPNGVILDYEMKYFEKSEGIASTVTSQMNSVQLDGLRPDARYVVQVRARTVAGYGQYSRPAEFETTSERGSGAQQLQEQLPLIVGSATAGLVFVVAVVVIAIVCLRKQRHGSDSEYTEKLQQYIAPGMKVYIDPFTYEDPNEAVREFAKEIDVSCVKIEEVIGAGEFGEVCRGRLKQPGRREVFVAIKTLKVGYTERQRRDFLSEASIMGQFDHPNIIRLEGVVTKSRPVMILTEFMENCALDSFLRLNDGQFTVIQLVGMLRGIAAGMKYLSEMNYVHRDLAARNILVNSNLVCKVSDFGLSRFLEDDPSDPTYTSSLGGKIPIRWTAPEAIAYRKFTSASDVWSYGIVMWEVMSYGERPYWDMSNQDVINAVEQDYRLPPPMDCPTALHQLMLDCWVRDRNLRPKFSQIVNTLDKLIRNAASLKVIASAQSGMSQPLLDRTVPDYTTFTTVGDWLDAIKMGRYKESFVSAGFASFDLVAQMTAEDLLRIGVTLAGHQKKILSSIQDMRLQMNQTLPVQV
Sequence of CHK1 (O14757 whole entry): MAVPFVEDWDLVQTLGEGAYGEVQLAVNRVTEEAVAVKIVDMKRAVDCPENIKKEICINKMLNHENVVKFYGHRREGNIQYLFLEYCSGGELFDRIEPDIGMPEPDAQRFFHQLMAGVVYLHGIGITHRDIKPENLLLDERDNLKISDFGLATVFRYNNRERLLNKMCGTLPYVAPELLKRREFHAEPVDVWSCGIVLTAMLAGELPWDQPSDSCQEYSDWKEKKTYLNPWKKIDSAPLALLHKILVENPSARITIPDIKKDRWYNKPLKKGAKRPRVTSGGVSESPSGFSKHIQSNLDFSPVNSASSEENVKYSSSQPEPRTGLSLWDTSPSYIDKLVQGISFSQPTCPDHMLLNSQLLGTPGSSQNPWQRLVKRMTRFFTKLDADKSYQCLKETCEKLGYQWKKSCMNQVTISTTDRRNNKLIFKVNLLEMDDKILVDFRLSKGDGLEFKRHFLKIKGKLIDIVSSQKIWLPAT
Sequence of YES/YES1 (P07947 whole entry): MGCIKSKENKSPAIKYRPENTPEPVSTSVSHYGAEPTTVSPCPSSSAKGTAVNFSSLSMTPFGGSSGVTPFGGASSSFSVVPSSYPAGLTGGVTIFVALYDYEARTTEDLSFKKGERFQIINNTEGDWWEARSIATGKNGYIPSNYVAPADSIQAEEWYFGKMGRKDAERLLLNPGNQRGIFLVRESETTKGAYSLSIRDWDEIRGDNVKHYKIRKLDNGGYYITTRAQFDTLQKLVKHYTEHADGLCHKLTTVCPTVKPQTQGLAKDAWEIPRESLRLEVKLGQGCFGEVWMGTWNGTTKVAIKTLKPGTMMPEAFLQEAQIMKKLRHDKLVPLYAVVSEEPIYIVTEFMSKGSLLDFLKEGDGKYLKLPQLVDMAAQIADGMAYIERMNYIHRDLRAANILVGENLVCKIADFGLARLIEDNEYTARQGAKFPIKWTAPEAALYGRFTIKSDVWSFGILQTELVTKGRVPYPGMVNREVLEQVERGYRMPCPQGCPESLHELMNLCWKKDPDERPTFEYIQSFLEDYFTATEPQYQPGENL
Sequence of RSK4 (Q9UK32 whole entry): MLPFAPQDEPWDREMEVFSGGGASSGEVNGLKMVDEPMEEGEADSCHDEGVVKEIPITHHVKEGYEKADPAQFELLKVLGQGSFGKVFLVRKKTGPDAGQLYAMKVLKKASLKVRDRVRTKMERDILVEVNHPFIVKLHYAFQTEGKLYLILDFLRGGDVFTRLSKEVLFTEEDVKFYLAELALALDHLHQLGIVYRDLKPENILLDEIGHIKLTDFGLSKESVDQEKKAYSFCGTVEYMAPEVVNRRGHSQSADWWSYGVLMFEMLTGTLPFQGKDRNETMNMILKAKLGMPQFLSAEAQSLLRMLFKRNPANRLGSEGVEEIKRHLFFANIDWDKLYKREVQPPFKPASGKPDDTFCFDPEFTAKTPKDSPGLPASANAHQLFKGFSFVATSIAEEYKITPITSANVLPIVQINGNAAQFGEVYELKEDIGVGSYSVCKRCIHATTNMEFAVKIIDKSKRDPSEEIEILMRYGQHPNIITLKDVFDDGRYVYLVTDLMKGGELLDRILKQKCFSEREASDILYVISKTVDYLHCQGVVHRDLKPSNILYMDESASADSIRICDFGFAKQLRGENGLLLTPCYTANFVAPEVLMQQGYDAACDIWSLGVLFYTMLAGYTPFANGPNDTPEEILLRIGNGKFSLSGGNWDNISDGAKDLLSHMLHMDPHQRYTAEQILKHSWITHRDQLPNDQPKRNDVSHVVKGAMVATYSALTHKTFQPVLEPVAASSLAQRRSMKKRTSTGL

**Q.** With `CCn1cnc2c(NCc3ccc(-c4ccccn4)nc3)nc(-c3ccc(N)nc3)nc21` [Example 53, N-([2,2′-bipyridin]-5-ylmethyl)-2-(6-aminopyridin-3-yl)-9-ethyl-9H-purin-6-amine] as the compound, how does the remaining activity at 10 µM (GRK5) read?
**A.** 91.5%

**Q.** What about the remaining activity at 10 µM (CDK2/CYCLIN E) of the same compound?
**A.** 4.01%

**Q.** What about the remaining activity at 10 µM (STK22D/TSSK1) of the same compound?
**A.** 38%

**Q.** And the remaining activity at 10 µM (RSK4)?
**A.** 54.2%

**Q.** And the remaining activity at 10 µM (SLK/STK2)?
**A.** 69.5%

**Q.** And the remaining activity at 10 µM (ARK5/NUAK1)?
**A.** 20.8%

**Q.** And the remaining activity at 10 µM (GRK7)?
**A.** 49.7%

**Q.** And the remaining activity at 10 µM (CK1d)?
**A.** 10.2%

**Q.** What about the remaining activity at 10 µM (MEKK3) of the same compound?
**A.** 94%

**Q.** What about the remaining activity at 10 µM (PKCd) of the same compound?
**A.** 95.2%

**Q.** What about the remaining activity at 10 µM (TESK1) of the same compound?
**A.** 93.1%

**Q.** What about the remaining activity at 10 µM (STK32C/YANK3) of the same compound?
**A.** 86.7%

**Q.** What about the remaining activity at 10 µM (EPHA1) of the same compound?
**A.** 13.2%

**Q.** And the remaining activity at 10 µM (CHK2)?
**A.** 7.39%

**Q.** And the remaining activity at 10 µM (DAPK2)?
**A.** 85.7%

**Q.** And the remaining activity at 10 µM (MKK6)?
**A.** 95.4%

**Q.** What about the remaining activity at 10 µM (CHK1) of the same compound?
**A.** 79.5%

**Q.** What about the remaining activity at 10 µM (MLK1/MAP3K9) of the same compound?
**A.** 27.9%

**Q.** What about the remaining activity at 10 µM (WNK3) of the same compound?
**A.** 74.5%

**Q.** And the remaining activity at 10 µM (PKCmu/PRKD1)?
**A.** 70.3%

**Q.** And the remaining activity at 10 µM (LCK2/ICK)?
**A.** 39.6%

**Q.** What about the remaining activity at 10 µM (SNRK) of the same compound?
**A.** 93%

**Q.** And the remaining activity at 10 µM (Haspin)?
**A.** 79.4%

**Q.** What about the remaining activity at 10 µM (EPHB3) of the same compound?
**A.** 66%

**Q.** What about the remaining activity at 10 µM (FMS) of the same compound?
**A.** 35.4%

**Q.** What about the remaining activity at 10 µM (STK16) of the same compound?
**A.** 35.9%

**Q.** And the remaining activity at 10 µM (ZIPK/DAPK3)?
**A.** 80.8%

**Q.** And the remaining activity at 10 µM (MST1/STK4)?
**A.** 62.2%

**Q.** And the remaining activity at 10 µM (MARK2/PAR-1Ba)?
**A.** 74.3%

**Q.** What about the remaining activity at 10 µM (PKN1/PRK1) of the same compound?
**A.** 85.4%

**Q.** What about the remaining activity at 10 µM (RSK2) of the same compound?
**A.** 69.4%

**Q.** What about the remaining activity at 10 µM (MEKK2) of the same compound?
**A.** 90%

**Q.** What about the remaining activity at 10 µM (YES/YES1) of the same compound?
**A.** 20.6%

**Q.** What about the remaining activity at 10 µM (P38b/MAPK11) of the same compound?
**A.** 64.7%

**Q.** And the remaining activity at 10 µM (MEK2)?
**A.** 176%

**Q.** What about the remaining activity at 10 µM (CDK4/cyclin D2) of the same compound?
**A.** 21.8%

**Q.** And the remaining activity at 10 µM (CDK1/cyclin A)?
**A.** 4.65%

**Q.** And the remaining activity at 10 µM (LYN B)?
**A.** 54.4%

**Q.** What about the remaining activity at 10 µM (NEK9) of the same compound?
**A.** 90%

— patent US20250101023A1, “HETEROARYL DERIVATIVE AND USES THEREOF” (IUCF-HYU (INDUSTRY-UNIVERSITY COOPERATION FOUNDATION …, priority 2022, published 2025)
